According to patent US10538535B2, “Antitumoral compounds” (priority 2017, dated 2020):
Like-named read-outs stand apart in the source and are kept apart here.

What was measured:
H460 tumors = conditions: iv, 3 mg/kg
A549 cells = test: cells; conditions: Homo sapiens, A549, 72 h
Procedure, shortened: (§1)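 Cells seeded at 5000/well, attached 18 h, then treated 72 h with ten 2/5 serial dilutions (10 to 0.003 μg/mL, 1% final DMSO) in triplicate. Growth measured by SRB staining after glutaraldehyde fixation, with time-zero plate; values from NCI algorithm and four-parameter logistic fit.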

PSN1 cells = test: cells; conditions: Homo sapiens, PSN1, 72 h
Procedure, shortened: as §1

MDA-MB-231 cells = test: cells; conditions: Homo sapiens, MDA-MB-231, 72 h
Procedure, shortened: as §1

HT29 cells = test: cells; conditions: Homo sapiens, HT-29, 72 h
Procedure, shortened: as §1

H526 tumors = test: In vivo xenograft, human lung (SCLC) H526; conditions: iv weekly, 39-S […], C 3 mg/Kg
MDA-MB-231 tumors = conditions: iv, 3 mg/kg
Description: (§2) Female athymic nu/nu mice (Harlan Laboratories Models, S. L. Barcelona, Spain or Envigo, Spain) were utilized for all experiments. Animal were housed in individually ventilated cages Sealsafe® Plus, Techniplast S.P.A.), up to ten per cage on a 12-hour light-dark cycle at 21-23° C. and 40-60% humidity. […] Animals were acclimated for at least 5 days prior to tumor implantation with a tumor cell suspension.
MDA-MB-231 cells were maintained in vitro at 37° C. with 5% CO2 in Dulbecco's Modified Eagle's Medium (Sigma-Aldrich, Co). Culture cells were passaged every 3 to 5 days upon reaching confluence.
(§3) Treatment tolerability was assessed by monitoring body weight evolution, clinical signs of systemic toxicity, as well as evidences of local damage in the injection site.
(§4) In xenograft studies with other cell lines: • Tumor volume was calculated using the equation (a·b^2)/2, where a: length (longest diameter) and b: width (shortest diameter) were measured in mm by using digital caliper (Fowler Sylvac, S235PAT).
(§5) Treatments producing >20% lethality and/or 20% net body weight loss were considered toxic.

HGC27 tumors = conditions: iv, 3 mg/kg
A2780 tumors = conditions: iv, 3 mg/kg
Description: as §2
Culture cells were passaged every 3 to 5 days upon reaching confluence. Each animal was subcutaneously implanted (on the right flank using 26 G needle and a 1 cc syringe) at 4-6 weeks of age with 10×10^6 A2780 cells suspended in 0.05 mL of a solution consisting of 50% Matrigel® (Corning Incorporated Life Sciences) and 50% medium without serum or antibiotics.
as §3, §4, §5

COc1c(C)cc2c(c1O)[C@@H]1[C@@H]3[C@@H]4SC[C@]5(N[C@H](C)Cc6c5[nH]c5ccccc65)C(=O)OC[C@@H](c5c6c(c(C)c(OC(C)=O)c54)OCO6)N3[C@@H](O)[C@H](C2)N1C [C]
Median Tumor Volume (H460 tumors; 0 h): 186.1 mm^3 | Median Tumor Volume (H460 tumors; 48 h): 395.4 mm^3 | Median Tumor Volume (H460 tumors; 120 h): 665.9 mm^3 | Median Tumor Volume (H460 tumors; 168 h): 929.5 mm^3 | Median Tumor Volume (H460 tumors; 336 h): 2025.0 mm^3 | Median Tumor Volume (H460 tumors; 384 h): 2025.0 mm^3 | GI50 (A549 cells): 27.3 nM | CC50 (A549 cells; read-out: LC50): > 130 nM | IC (TGI) (A549 cells; read-out: TGI): 66.3 nM | GI50 (PSN1 cells): 36.4 nM | CC50 (PSN1 cells; read-out: LC50): 65 nM | IC (TGI) (PSN1 cells; read-out: TGI): 44.2 nM | GI50 (MDA-MB-231 cells): 26 nM | CC50 (MDA-MB-231 cells; read-out: LC50): > 130 nM | IC (TGI) (MDA-MB-231 cells; read-out: TGI): 54.6 nM | GI50 (HT29 cells): 20.8 nM | CC50 (HT29 cells; read-out: LC50): > 130 nM | IC (TGI) (HT29 cells; read-out: TGI): 23.4 nM | Median Tumor Volume (H526 tumors; Table 49, Day 0): 217.9 mm^3 | Median Tumor Volume (H526 tumors; Table 49, Day 2): 262.4 mm^3 | Median Tumor Volume (H526 tumors; Table 49, Day 4): 108.3 mm^3 | Median Tumor Volume (H526 tumors; Table 49, Day 7): 129.8 mm^3 | Median Tumor Volume (H526 tumors; Table 49, Day 9): 85.9 mm^3 | Median Tumor Volume (H526 tumors; Table 49, Day 11): 52.3 mm^3 | Median Tumor Volume (H526 tumors; Table 49, Day 14): 54.1 mm^3 | Median Tumor Volume (H526 tumors; Table 49, Day 16): 47.3 mm^3 | Median Tumor Volume (H526 tumors; Table 49, Day 21): 4.0 mm^3 | Median Tumor Volume (H526 tumors; Table 49, Day 28): 4.0 mm^3 | Median Tumor Volume (H526 tumors; Table 49, Day 35): 4.0 mm^3 | Median Tumor Volume (H526 tumors; Table 49, Day 42): 62.5 mm^3 | Median Tumor Volume (H526 tumors; Table 49, Day 49): 53.5 mm^3 | Median Tumor Volume (H526 tumors; Table 49, Day 56): 70.0 mm^3 | Median Tumor Volume (H526 tumors; Table 49, Day 63): 132.3 mm^3 | Median Tumor Volume (H526 tumors; Table 49, Day 70): 368.5 mm^3 | Median Tumor Volume (H526 tumors; Table 49, Day 77): 465.8 mm^3 | Median Tumor Volume (H526 tumors; Table 49, Day 84): 107.4 mm^3 | Median Tumor Volume (H526 tumors; Table 49, Day 91): 130.0 mm^3 | Median Tumor Volume (H526 tumors; Table 49, Day 98): 4.0 mm^3 | Median Tumor Volume (H526 tumors; Table 49, Day 105): 4.0 mm^3 | Median Tumor Volume (H526 tumors; Table 49, Day 112): 4.0 mm^3 | Median Tumor Volume (H526 tumors; Table 49, Day 119): 4.0 mm^3 | Median Tumor Volume (H526 tumors; Table 49, Day 126): 4.0 mm^3 | Median Tumor Volume (H526 tumors; Table 49, Day 133): 4.0 mm^3 | Median Tumor Volume (H526 tumors; Table 49, Day 140): 4.0 mm^3 | Median Tumor Volume (H526 tumors; Table 49, Day 147): 4.0 mm^3 | Median Tumor Volume (H526 tumors; Table 49, Day 165): 4.0 mm^3 | Median Tumor Volume (H526 tumors; Table 49, Day 175): 4.0 mm^3 | Median Tumor Volume (H526 tumors; Table 49, Day 191): 4.0 mm^3 | Median Tumor Volume (H526 tumors; Table 49, Day 205): 4.0 mm^3 | Median Tumor Volume (MDA-MB-231 tumors; 0 h): 149.4 mm^3 | Median Tumor Volume (MDA-MB-231 tumors; 48 h): 217.1 mm^3 | Median Tumor Volume (MDA-MB-231 tumors; 120 h): 281.3 mm^3 | Median Tumor Volume (MDA-MB-231 tumors; 168 h): 338.6 mm^3 | Median Tumor Volume (MDA-MB-231 tumors; 336 h): 436.9 mm^3 | Median Tumor Volume (MDA-MB-231 tumors; 384 h): 585.7 mm^3 | Median Tumor Volume (MDA-MB-231 tumors; 456 h): 774.7 mm^3 | Median Tumor Volume (MDA-MB-231 tumors; 504 h): 965.9 mm^3 | Median Tumor Volume (MDA-MB-231 tumors; 552 h): 1215.2 mm^3 | Median Tumor Volume (MDA-MB-231 tumors; 672 h): 1785.3 mm^3 | Median Tumor Volume (MDA-MB-231 tumors; 720 h): 2037.1 mm^3 | Median Tumor Volume (HGC27 tumors; 0 h): 195.0 mm^3 | Median Tumor Volume (HGC27 tumors; 48 h): 391.0 mm^3 | Median Tumor Volume (HGC27 tumors; 120 h): 578.6 mm^3 | Median Tumor Volume (HGC27 tumors; 168 h): 708.2 mm^3 | Median Tumor Volume (HGC27 tumors; 336 h): 1496.8 mm^3 | Median Tumor Volume (HGC27 tumors; 384 h): 1690.6 mm^3 | Median Tumor Volume (HGC27 tumors; 456 h): 2004.0 mm^3 | Median Tumor Volume (HGC27 tumors; 504 h): 1741.4 mm^3 | Median Tumor Volume (HGC27 tumors; 552 h): 2056.4 mm^3 | Median Tumor Volume (A2780 tumors; 0 h): 169.6 mm^3 | Median Tumor Volume (A2780 tumors; 48 h): 206.3 mm^3 | Median Tumor Volume (A2780 tumors; 120 h): 372.7 mm^3 | Median Tumor Volume (A2780 tumors; 168 h): 607.6 mm^3 | Median Tumor Volume (A2780 tumors; 336 h): 1293.9 mm^3 | Median Tumor Volume (A2780 tumors; 384 h): 1683.5 mm^3 | Median Tumor Volume (A2780 tumors; 456 h): 2137.5 mm^3
